“And” between values parts separate entries of the source, which are not always exact repeats. Identical values can stand only once. “Also recorded” adds a separate entry of the source.
Assays:
[1] = Plasma pharmacokinetics of CK in healthy volunteers; conditions: male, human, 800 mg
Description: Note that in our other study carried out in healthy volunteers, 10 healthy male volunteers received administrations of 800 mg pure CK tablets (100mg/tablet, provided by Zhejiang Hisun Pharmaceutical Company Limited, China) swallowed by 150 mL water, then series venous blood samples of 5 mL were collected into EDTA-containing tubes at 0, 0.25, 0.5, 1, 1.5, 2, 2.5, 3, 3.5, 4, 5, 6, 8, 12, 24, 36, 48, 72 and 96h. The plasma samples were analyzed by HPLC-MS/MS, the peak plasma concentration (Cmax) and time to peak plasma concentration (Tmax) were directly obtained from the observed concentration-time data. The area under the plasma concentration-time curve (AUC) from time zero to last measured concentration (AUC(0−t)) was calculated according to the linear trapezoidal rule, the estimate of oral clearance(CL/F) was calculated as CL/F = Dose /AUC(0–t).

CYP2C19 = biological target: T1, CYP2C19 (Homo sapiens, UniProt P33261); assay: Inhibition of CYP2C19 (S-Mephenytoin 4-hydroxylation) by CK in HLMs; type: in vitro ADME
T1 construct: tissue Cypex Ltd. (U.K.); host or cells: pooled human liver microsomes
T1 sequence (P33261 whole entry): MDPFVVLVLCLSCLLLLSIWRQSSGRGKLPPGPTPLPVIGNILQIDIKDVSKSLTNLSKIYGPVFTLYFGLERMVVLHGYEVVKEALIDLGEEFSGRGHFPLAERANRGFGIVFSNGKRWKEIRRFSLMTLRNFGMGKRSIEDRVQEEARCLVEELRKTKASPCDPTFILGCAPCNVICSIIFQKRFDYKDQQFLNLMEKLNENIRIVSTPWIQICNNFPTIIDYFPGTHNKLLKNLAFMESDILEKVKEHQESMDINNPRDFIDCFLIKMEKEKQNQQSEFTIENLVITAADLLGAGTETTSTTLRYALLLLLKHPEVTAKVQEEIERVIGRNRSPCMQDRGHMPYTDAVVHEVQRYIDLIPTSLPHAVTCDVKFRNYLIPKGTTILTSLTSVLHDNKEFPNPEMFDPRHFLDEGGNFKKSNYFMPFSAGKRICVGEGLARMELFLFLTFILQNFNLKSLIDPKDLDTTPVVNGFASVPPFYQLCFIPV
Description: (§1) The method was conducted according to our previous study with some modifications. The CYP isoform-specific probe reactions used were phenacetin O-deethylation (for CYP1A2), coumarin 7-hydroxylation (for CYP2A6), tolbutamide 4-hydroxylation (for CYP2C9), metoprolol α-hydroxylation (for CYP2D6), chlorzoxazone 6-hydroxylation (for CYP2E1),S-Mephenytoin 4-hydroxylation (for CYP2C19), and midazolam 1-hydroxylation (for CYP3A4). The kinetic study of CK was conducted with HLMs. A 0.2 mL incubation mixture that consisted of CK (as a substrate), the HLMs (0.5 mg/mL) or CYP isoforms (10 pmol), and 0.1 M sodium phosphate buffer (pH 7.4) was pre-warmed for 5 min at 37°C. The reaction was initiated by the addition of 1 mg/mL triphosphopyridine nucleotide (NADPH). All the reagents were dissolved in methanol, and the final solvent concentration in all incubations (including the controls) was 1%. The final incubations were performed in a shaking water bath (37°C) for 30 min. The reactions were stopped by adding 0.2 mL ice-cold acetonitrile, which contains irbesartan (114.9 ng/mL) as the internal standard. The samples were vortexed for 5 min. After centrifugation (12000×g for 10 min), the supernatants were transferred, and aliquots of 20 μL were injected into the HPLC-MS/MS system for analysis.
CK (10–100 μM) and a single CYP isoform-specific substrate (with a concentration similar to its corresponding Kmvalue) were used to determine the inhibitory effect of CK on specific CYP isoforms as described in detail previously. Substrates including phenacetin, coumarin, tolbutamide, metoprolol, chlorzoxazone, S-Mephenytoin, and midazolam were used at concentrations of 10, 5, 100, 7.5, 40, 100, and 5 μM, respectively. All incubation conditions were the same as mentioned above. The inhibitory effects on the CYP isoforms were investigated individually by incubating the HLMs in the absence or presence of CK. […]

[2] = Kinetic analysis of CK metabolism in human liver microsomes; type: in vitro ADME; conditions: human, human liver microsomes, pH 7.4, HLMs 0.5 mg/mL, CK 10–100 μM, 37°C, NADPH
Description: as §1, with “analysis. […]” for “analysis.”

[3] = system: human liver microsomes (HLMs); assay: as above; type: in vitro ADME; conditions: HLMs 0.5 mg/mL, CK 10–100 μM, 37°C, 30 min, NADPH
Description: as §1, with “analysis. […]” for “analysis.”

CYP3A4 = CYP3A4 (Homo sapiens, UniProt P08684); assay: Metabolic clearance rate of CK with recombinant CYP3A4 under ketoconazole; type: in vitro ADME; parameters: purchased Cypex Ltd. (U.K.); conditions: recombinant CYP3A4, CK 50 μM, ketoconazole 1 μM
Chain of CYP3A4 (P08684 whole entry, canonical isoform): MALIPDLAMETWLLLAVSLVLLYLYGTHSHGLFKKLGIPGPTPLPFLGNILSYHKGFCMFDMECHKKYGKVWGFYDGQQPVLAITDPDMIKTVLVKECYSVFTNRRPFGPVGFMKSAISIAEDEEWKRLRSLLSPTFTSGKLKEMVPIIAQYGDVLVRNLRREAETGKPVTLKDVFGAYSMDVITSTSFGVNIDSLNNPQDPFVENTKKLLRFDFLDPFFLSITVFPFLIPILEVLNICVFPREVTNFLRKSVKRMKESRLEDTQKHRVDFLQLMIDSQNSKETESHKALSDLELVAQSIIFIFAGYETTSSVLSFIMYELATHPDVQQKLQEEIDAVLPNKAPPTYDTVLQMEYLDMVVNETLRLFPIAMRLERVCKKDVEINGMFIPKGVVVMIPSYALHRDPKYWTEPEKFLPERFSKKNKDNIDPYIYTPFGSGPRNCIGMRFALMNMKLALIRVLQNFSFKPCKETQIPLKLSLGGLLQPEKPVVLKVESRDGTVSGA
Description: The method was conducted according to our previous study with some modifications. The CYP isoform-specific probe reactions used were phenacetin O-deethylation (for CYP1A2), coumarin 7-hydroxylation (for CYP2A6), tolbutamide 4-hydroxylation (for CYP2C9), metoprolol α-hydroxylation (for CYP2D6), chlorzoxazone 6-hydroxylation (for CYP2E1),S-Mephenytoin 4-hydroxylation (for CYP2C19), and midazolam 1-hydroxylation (for CYP3A4). The kinetic study of CK was conducted with HLMs. A 0.2 mL incubation mixture that consisted of CK (as a substrate), the HLMs (0.5 mg/mL) or CYP isoforms (10 pmol), and 0.1 M sodium phosphate buffer (pH 7.4) was pre-warmed for 5 min at 37°C. The reaction was initiated by the addition of 1 mg/mL triphosphopyridine nucleotide (NADPH). […]
To screen the specific CYP isoform responsible for the CK metabolism, we determined the inhibitory effect of specific inhibitors on the metabolism of CK in the HLMs as described in detail previously. […] The inhibitory effects of the above specific inhibitors on the metabolic clearance rate of CK were evaluated separately to screen the CYP isoforms responsible for the CK metabolism. The relative activity of the CYP isoforms was calculated by dividing the peak area of CK when incubated with the inhibitor by that of CK from the negative controls. […]

## CC(C)=CCC[C@](C)(OC1O[C@H](CO)[C@@H](O)[C@H](O)[C@H]1O)[C@H]1CC[C@]2(C)[C@@H]1[C@H](O)C[C@@H]1[C@@]3(C)CC[C@H](O)C(C)(C)[C@@H]3CC[C@]12C (stereo partly drawn) [CK, 20-O-β-(D-glucopyranosyl)-20(S)-protopanaxadiol]
[1]; oral
  Cmax: ~5 µM
[1]; po
  Cmax: 4.07 µM
CYP2C19; HLMs, CK 10–100 μM
  inhibitory effect on the activity of CYP2C19: minimal; also recorded: negligible
CYP2C19; HLMs, S-Mephenytoin 100 μM, CK 10–100 μM
  IC50: > 100 µM
CYP2C19; classified by IC50 according to Kong et al
  inhibitor potency class for CYP2C19: weak (weak, if IC50≥100 μg/mL or ≥50 μM)
[2]
  Km at 30 min: 84.2 ± 21.9 µM
[3]
  Vmax of CK metabolism: 0.28±0.04 nmol/mg protein/min and 0.2840 nmol/mg protein/min
CYP3A4
  MCR of CK, of that of the control: 13.2%

— publication PMC4742234, “Screening of Drug Metabolizing Enzymes for the Ginsenoside Compound K In Vitro: An Efficient Anti-Cancer Substance Originating from Panax Ginseng” (PLoS ONE, 2016)
